Data published in patent publication US8877759B2, “Aminopyrazines as ATR kinase inhibitors” (Vertex Pharnaceuticals Incorporated, priority 2011, dated 2014).

These compounds were tested against T1, full-length ATR (Homo sapiens, UniProt Q13535) (assay: ATR Inhibition Assay (radioactive-phosphate incorporation)). Conditions: not given.
T1 construct: Assays were carried out at 25° C. in the presence of 5 nM full-length ATR
Format: biochemical

T1 sequence (Q13535 whole entry): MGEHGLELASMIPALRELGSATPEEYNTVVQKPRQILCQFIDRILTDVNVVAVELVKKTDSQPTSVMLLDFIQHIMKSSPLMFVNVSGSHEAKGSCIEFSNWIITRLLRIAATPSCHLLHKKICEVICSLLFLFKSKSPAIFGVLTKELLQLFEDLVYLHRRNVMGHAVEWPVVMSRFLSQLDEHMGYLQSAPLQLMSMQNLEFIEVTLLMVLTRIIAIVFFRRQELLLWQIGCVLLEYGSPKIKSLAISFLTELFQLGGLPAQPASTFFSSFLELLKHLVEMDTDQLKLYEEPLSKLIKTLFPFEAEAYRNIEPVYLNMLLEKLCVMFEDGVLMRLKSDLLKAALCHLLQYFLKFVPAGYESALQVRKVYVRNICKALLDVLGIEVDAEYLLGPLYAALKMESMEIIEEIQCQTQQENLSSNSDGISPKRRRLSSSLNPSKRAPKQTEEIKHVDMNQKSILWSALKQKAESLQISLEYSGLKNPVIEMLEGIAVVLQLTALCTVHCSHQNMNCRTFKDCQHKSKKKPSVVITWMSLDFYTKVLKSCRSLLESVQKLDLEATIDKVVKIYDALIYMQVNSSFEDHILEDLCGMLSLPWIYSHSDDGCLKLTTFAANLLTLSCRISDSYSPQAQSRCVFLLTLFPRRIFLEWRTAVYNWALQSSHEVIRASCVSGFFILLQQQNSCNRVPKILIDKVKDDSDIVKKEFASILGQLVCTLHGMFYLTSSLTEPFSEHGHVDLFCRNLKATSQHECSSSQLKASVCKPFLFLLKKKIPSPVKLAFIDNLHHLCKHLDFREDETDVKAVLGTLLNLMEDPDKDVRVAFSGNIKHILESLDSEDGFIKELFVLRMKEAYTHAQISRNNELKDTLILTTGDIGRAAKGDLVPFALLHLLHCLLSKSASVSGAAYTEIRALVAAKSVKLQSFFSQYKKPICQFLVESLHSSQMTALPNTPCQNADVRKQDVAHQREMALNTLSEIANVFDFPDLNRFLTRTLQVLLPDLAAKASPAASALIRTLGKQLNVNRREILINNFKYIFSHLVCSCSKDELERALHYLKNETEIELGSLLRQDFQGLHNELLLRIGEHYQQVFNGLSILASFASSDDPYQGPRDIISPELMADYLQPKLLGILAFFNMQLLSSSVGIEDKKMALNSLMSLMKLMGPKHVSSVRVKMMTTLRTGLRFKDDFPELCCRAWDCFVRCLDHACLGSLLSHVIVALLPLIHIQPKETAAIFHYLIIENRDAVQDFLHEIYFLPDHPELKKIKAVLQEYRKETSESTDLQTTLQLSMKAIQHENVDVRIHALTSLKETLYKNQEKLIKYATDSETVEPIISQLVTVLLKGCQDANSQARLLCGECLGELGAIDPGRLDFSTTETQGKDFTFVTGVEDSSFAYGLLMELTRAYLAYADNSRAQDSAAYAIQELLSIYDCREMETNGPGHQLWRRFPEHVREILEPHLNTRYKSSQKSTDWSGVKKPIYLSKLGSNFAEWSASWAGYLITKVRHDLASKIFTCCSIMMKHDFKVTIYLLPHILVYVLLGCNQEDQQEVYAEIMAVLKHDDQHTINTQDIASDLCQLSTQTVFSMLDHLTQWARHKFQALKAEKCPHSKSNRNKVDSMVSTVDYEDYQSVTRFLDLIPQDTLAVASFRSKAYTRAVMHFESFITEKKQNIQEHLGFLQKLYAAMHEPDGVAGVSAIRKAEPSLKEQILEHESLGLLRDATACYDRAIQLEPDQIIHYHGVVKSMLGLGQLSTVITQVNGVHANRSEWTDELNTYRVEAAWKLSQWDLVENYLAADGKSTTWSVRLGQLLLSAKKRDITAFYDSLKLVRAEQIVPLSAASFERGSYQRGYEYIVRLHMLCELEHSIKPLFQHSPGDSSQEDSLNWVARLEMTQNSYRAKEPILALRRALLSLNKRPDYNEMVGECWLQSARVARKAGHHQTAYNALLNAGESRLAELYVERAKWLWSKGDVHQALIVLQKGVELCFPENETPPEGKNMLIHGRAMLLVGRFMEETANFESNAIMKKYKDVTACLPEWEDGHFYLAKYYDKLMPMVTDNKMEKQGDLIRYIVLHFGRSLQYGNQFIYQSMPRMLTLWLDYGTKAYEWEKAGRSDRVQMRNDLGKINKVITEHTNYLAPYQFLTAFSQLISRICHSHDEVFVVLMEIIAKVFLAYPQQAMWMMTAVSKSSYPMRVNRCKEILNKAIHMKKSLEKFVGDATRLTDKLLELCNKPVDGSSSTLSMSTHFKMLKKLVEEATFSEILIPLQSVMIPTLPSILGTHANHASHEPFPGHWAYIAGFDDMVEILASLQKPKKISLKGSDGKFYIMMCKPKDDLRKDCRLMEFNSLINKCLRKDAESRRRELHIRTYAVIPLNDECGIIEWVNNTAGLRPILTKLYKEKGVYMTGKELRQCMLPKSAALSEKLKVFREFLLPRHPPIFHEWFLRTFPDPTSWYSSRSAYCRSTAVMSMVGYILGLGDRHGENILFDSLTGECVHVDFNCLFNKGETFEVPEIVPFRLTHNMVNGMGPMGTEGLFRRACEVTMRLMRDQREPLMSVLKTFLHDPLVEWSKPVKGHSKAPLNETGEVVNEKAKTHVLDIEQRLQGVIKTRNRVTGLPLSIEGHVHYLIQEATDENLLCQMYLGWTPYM

Row | Compound | Ki
1 | CNCc1ccc(-c2cc(-c3nc(-c4ccnc(C(C)(C)S(C)(=O)=O)c4)cnc3N)on2)cc1 [Compound I-14, 3-[3-[4-(methylaminomethyl)phenyl]isoxazol-5-yl]-5-[2-(1-methyl-1-methylsulfonyl-ethyl)-4-pyridyl]pyrazin-2-amine] | < 1 nM
2 | CC(C)(c1cc(-c2cnc(N)c(-c3cc(-c4ccccc4)no3)n2)ccn1)S(C)(=O)=O [Compound I-22, 5-[2-(1-methyl-1-methylsulfonyl-ethyl)-4-pyridyl]-3-(3-phenylisoxazol-5-yl)pyrazin-2-amine] | < 1 nM

Further lines, results first:

Row | Ki | Compound
3 | < 1 nM | COCC(CO)CNCc1ccc(-c2cc(-c3nc(-c4ccnc(C(C)(C)C#N)c4)cnc3N)on2)cc1 (stereo not drawn) [Compound I-67]
4 | < 1 nM | N#CCc1cc(-c2cnc(N)c(-c3nnc(-c4ccc(CNC5CCOCC5)cc4)o3)n2)ccn1 [Compound I-137]
5 | < 1 nM | C[C@H](N)c1ccc(-c2nnc(-c3nc(-c4ccnc(C(C)(C)C#N)c4)cnc3N)o2)cc1 [Compound I-44, 2-[4-[5-amino-6-[5-[4-[(1S)-1-aminoethyl]phenyl]-1,3,4-oxadiazol-2-yl]pyrazin-2-yl]-2-pyridyl]-2-methyl-propanenitrile]

Same assay, conditions: Ki(app); 5 nM full-length ATR, 10 μM [γ-33P]ATP, 800 μM target peptide, 25° C.

Row | Compound | ATR Ki
6 | N#CC1(c2cc(-c3cnc(N)c(-c4cc(-c5ccccc5)no4)n3)ccn2)CCNCC1 [Compound I-6, 4-[4-[5-amino-6-(3-phenylisoxazol-5-yl)pyrazin-2-yl]-2-pyridyl]piperidine-4-carbonitrile] | +++ (Compounds with a Ki value >5 nM but ≦1 nM are marked with “+++.”)
